In article PMC7156724, “Potent BRD4 inhibitor suppresses cancer cell-macrophage interaction” (Nature Communications, 2020):
Several values for one entry are separate records, joined by “and”; a condition that tells them apart may be missing. Identical values can stand only once.

Tests used:
A2780 ovarian tumors = experiment: A2780 ovarian subcutaneous tumor growth; assay type: in vivo, mouse; details: for Tumor volume: Fig.3b a2780, 3mg/kg p.o. QD x 15D, n=5, individual animals, in mm³ (unit assumed)
Text: PO, oral administration; QD, once daily; BID, twice daily. b–d Tumor growth curves for A2780 ovarian tumor (n = 5) (b), TMD8 large B cell lymphoma (n = 6) (c), and B16F10 melanoma (n = 5) (d) bearing mice treated with the indicated compounds once daily for 11-21 days. e, f Tumor growth curves for A375 melanoma (n = 6) (e), and patient-derived xenograft (PDX) of melanoma (n = 5) (f) bearing mice treated with the indicated compounds once daily (5 days on, 2 days off) for 21 days. For d–f, NHWD-870 used is NHWD-870-HCl synthesized using Suzuki coupling route. Data are presented as mean ± SEM in (a, b, d, f) and mean + SEM in (c, e). p values were calculated using two-tailed, unpaired t tests. *p < 0.05; **p < 0.01; ***p < 0.001. Source data are provided as a Source Data file.
4–6 weeks old female BALB/c nude mice were used for most experiments, with the exception of 6–8 weeks old female C57BL/6 mice were used for B16F10 experiments, and 6–8 weeks old male BALB/c nude mice and SD rats were used for pharmacokinetic experiments. All animals were purchased from Shanghai SIPPR-Bk Lab Animal Co., Ltd. All animals were housed under a regimen of 12 h light/12 h dark cycles and specific pathogen-free conditions. 5×10^6 NCI-H526, ES-2, MDA-MB231, A2780, A375, B16F10, and TMD-8 cells (0.1 ml) were injected subcutaneously into female nude mice. The melanoma patient-derived xenograft model was derived from a human melanoma sample (BRAF, NARS and NF1 wild type, and p53 mutant) removed from a patient in Xiangya Hospital. Surgically removed tumor fragments were implanted subcutaneously into female NSG mice. When the tumors grew to ~1000 mm^3, they were harvested and cryopreserved or immediately re-implanted for expansion or experiments. Mouse body weight and tumor sizes were measured every 3 days. Once the tumors grew to 150–200 mm^3, mice were treated with the compounds as described in the Figures. 1 × 10^6 A2780 cells (1 ml) were injected into the abdominal cavity of nude mice. Ascitic volume and tumor weight were measured by an electronic balance. All the procedures were evaluated and approved by the Institutional Animal Care and Use Committee of Central South University and Yale University.

HIF1α protein = experiment: Western blot of HIF1α in A375 and A2780 cells at 20% or 1% O2; assay type: cell-based, human; details: 25 nM, 20% or 1% O2, 24 h
Method: Fig. 7 NHWD-870 inhibited CSF1 expression through suppressing BRD4 and HIF1α in tumor cells. a, b Representative western blot analysis of control (Ctrl) and BRD4 knockout (KO) A375 and A2780 cells exposed to 20% or 1% O2 for 24 hours. Selected from three independent experiments. c, d Representative western blot analysis of A375 and A2780 cells treated with DMSO or 25 nM NHWD-870 and exposed to 20% or 1% O2 for 24 h. Selected from three independent experiments. e Relative HIF1 luciferase reporter activity in control (Ctrl), BRD4 knockout (KO), or NHWD-870 treated A375 and A2780 cells exposed to 20% or 1% O2 for 24 h. […] NHWD-870 inhibits the proliferation and survival of TAMs partly by inhibiting BRD4 activity, HIF1α expression, and CSF1 secretion by tumor cells, and downregulating CSF1R mediated ERK and PI3K/AKT signaling in TAMs. p values were calculated using two-tailed, unpaired t tests in this figure. *p < 0.05; **p < 0.01; ***p < 0.001. […]
of treatment, 10 μl AlamarBlue reagent (0.3 mg/ml) was added to each well, and after 18h, the florescence intensity in each well was measured using a top-reading fluorescent plate reader with excitation at 530 nm and emission at 590 nm.
4. […] Supernatants were collected and determined with a Bradford Protein Assay kit (Bio-Rad, Hercules, CA). […]
every week. […] Colony numbers were calculated with imageJ version

**Q.** How did the “effect on tumor growth” value (A2780 ovarian tumors; A2780 ovarian tumors, oral once daily) turn out when Cc1nnn(C)c1-c1cnc2c3c4cnn(C)c4ccc3n([C@H](c3ccccc3)C3CCOCC3)c2c1 [NHWD-870] was run?
**A.** Its value is “strong tumor regression activity”.

**Q.** And the Tumor volume (A2780 ovarian tumors; day 3)?
**A.** The Tumor volume was 437 and 185 and 30 and 119 and 617.

**Q.** What about the Tumor volume (A2780 ovarian tumors; day 6) of the same compound?
**A.** The Tumor volume was 183 and 151 and 27 and 79 and 405.

**Q.** What about the Tumor volume (A2780 ovarian tumors; day 9) of the same compound?
**A.** Its Tumor volume is 150 and 191 and 22 and 66 and 371.

**Q.** What about the Tumor volume (A2780 ovarian tumors; day 12) of the same compound?
**A.** Its Tumor volume is 110 and 138 and 20 and 56 and 270.

**Q.** What about the Tumor volume (A2780 ovarian tumors; day 15) of the same compound?
**A.** The Tumor volume was 91 and 72 and 18 and 40 and 78.

**Q.** And the “HIF1α protein (western blot)” value (HIF1α protein)?
**A.** The value was “decreased HIF1α protein”.
